Measured values published in ChEMBL document CHEMBL5380773, “Novel Feleucin-K3-Derived Peptides Modified with Sulfono-γ-AA Building Blocks Targeting Pseudomonas aeruginosa and Methicillin-Resistant Staphylococcus aureus Infections” (J Med Chem, 2023).
Calls of active or inactive are those of the source. The rule behind the calls is not given here. Numbered stars: 1 amine (or outer) side, 2 acyl side, 3 side chain; on linkers, the order of the positions; unused ones are H or OH. Square brackets hold non-standard residues; d marks the D form. Peptide text beside a SMILES is read from it. * marks the point of attachment. X26 = O=C(O)c1cc(NC(=S)c2ccc(S(=O)(=O)*)cc2)ccc1-c1c2ccc(=O)cc-2oc2cc(O)ccc12; Benzenesulfonyl(2-NO2) = O=[N+]([O-])c1ccccc1S(=O)(=O)*; Benzenesulfonyl(4-OMe) = COc1ccc(S(=O)(=O)*)cc1; Benzenesulfonyl(4-F) = O=S(=O)(c1ccc(F)cc1)*; X3 = N[C@@H](Cc1ccccc1)CN(CC(=O)[*:2])[*:1]; X2 = CC(C)C[C@H](N)CN(CC(=O)[*:2])[*:1]; Tos = Cc1ccc(S(=O)(=O)*)cc1

Tests used:
Staphylococcus aureus [1] = experiment: Antimicrobial activity against methicillin resistant Staphylococcus aureus ATCC 33591 infected in BALB/c mouse assessed as reduction in sessile bacteria attached on catheters surface at 0.25 to 1 mg/kg infected with bacteria for 2 hrs prior to compound addition on 1, 24 and 48 hrs and measured after 72 hrs […]; assay type: functional, organism-based; conditions: dose 0.25-1 mg/kg
Erythrocyte = experiment: Hemolytic activity against mouse red blood cells incubated for 1 hr; assay type: toxicity, cell-based
[2] = Stability in mouse serum assessed as half life incubated for 6 hrs by HPLC analysis; assay type: ADME, cell-free
Cell membrane = experiment: Induction of membrane disruption in Pseudomonas aeruginosa ATCC 27853 after 30 mins by confocal laser scanning microscopic analysis; assay type: subcellular
Staphylococcus aureus [3] = experiment: Induction of resistant development in Staphylococcus aureus ATCC 25923 assessed as fold increase by serial passage assay; assay type: functional
Staphylococcus aureus [4] = experiment: Induction of resistant development in methicillin resistant Staphylococcus aureus ATCC 33591 assessed as fold increase by serial passage assay; assay type: functional
Pseudomonas aeruginosa [5] = experiment: Antimicrobial activity against multidrug resistant Pseudomonas aeruginosa ATCC 27853 assessed as fold increase incubated for 18 hrs by microdilution method; assay type: functional
Pseudomonas aeruginosa [6] = experiment: Induction of resistant development in Pseudomonas aeruginosa ATCC 27853 assessed as fold increase in MIC after 20 days; assay type: functional; conditions: time 20 day

In the case of `CN[C@H](CC(C)C)C(=O)N[C@H]1C(=O)N[C@@H](CC(N)=O)C(=O)N[C@H]2C(=O)N[C@H]3C(=O)N[C@H](C(=O)N[C@H](C(=O)O)c4cc(O)cc(O)c4-c4cc3ccc4O)[C@H](O)c3ccc(c(Cl)c3)Oc3cc2cc(c3O[C@@H]2O[C@H](CO)[C@@H](O)[C@H](O)[C@H]2O[C@H]2C[C@](C)(N)[C@H](O)[C@H](C)O2)Oc2ccc(cc2Cl)[C@H]1O`, the Activity (Staphylococcus aureus [1]) is reported as “Active”.

With `Cc1ccc(S(=O)(=O)N(CC(=O)N[C@@H](CCCCN)C(=O)N[C@@H](CC(C)C)C(=O)N[C@@H](CC(C)C)C(=O)N[C@@H](CCCCN)C(=O)N[C@@H](CCCCN)C(=O)N[C@@H](CC(C)C)C(=O)N[C@@H](CC(C)C)C(N)=O)C[C@@H](N)Cc2ccccc2)cc1` (Tos-[X3]KLLKKLL-NH2) the MHC (Erythrocyte) was 256 µg/mL and the half-life [2] was 418 min.

With `CC(C)C[C@H](N)CN(CC(=O)N[C@@H](CCCCN)C(=O)N[C@@H](CC(C)C)C(=O)N[C@@H](CC(C)C)C(=O)N[C@@H](CCCCN)C(=O)N[C@@H](CCCCN)C(=O)N[C@@H](CC(C)C)C(=O)N[C@@H](CC(C)C)C(N)=O)S(=O)(=O)c1ccc(C(=S)Nc2ccc(-c3c4ccc(=O)cc-4oc4cc(O)ccc34)c(C(=O)O)c2)cc1` (X26-[X2]KLLKKLL-NH2) the Activity (Cell membrane) was “Active”.

Work on `CC(C)C[C@H](N)CN(CC(=O)N[C@@H](CCCCN)C(=O)N[C@@H](CC(C)C)C(=O)N[C@@H](CC(C)C)C(=O)N[C@@H](CCCCN)C(=O)N[C@@H](CCCCN)C(=O)N[C@@H](CC(C)C)C(=O)N[C@@H](CC(C)C)C(N)=O)S(=O)(=O)c1ccccc1[N+](=O)[O-]` ({Benzenesulfonyl(2-NO2)}-[X2]KLLKKLL-NH2) yielded an MHC (Erythrocyte) of 256 µg/mL.

With `CC(C)C[C@H](NC(=O)[C@H](CC(C)C)NC(=O)[C@H](CCCCN)NC(=O)[C@H](CCCCN)NC(=O)[C@H](CC(C)C)NC(=O)[C@H](CC(C)C)NC(=O)[C@H](CCCCN)NC(=O)CN(C[C@@H](N)Cc1ccccc1)S(=O)(=O)c1ccccc1[N+](=O)[O-])C(N)=O` ({Benzenesulfonyl(2-NO2)}-[X3]KLLKKLL-NH2) the MHC (Erythrocyte) was 256 µg/mL.

Compound `CC(C)C[C@H](N)CN(CC(=O)N[C@@H](CCCCN)C(=O)N[C@@H](CC(C)C)C(=O)N[C@@H](CC(C)C)C(=O)N[C@@H](CCCCN)C(=O)N[C@@H](CCCCN)C(=O)N[C@@H](CC(C)C)C(=O)N[C@@H](CC(C)C)C(N)=O)S(=O)(=O)c1ccc(F)cc1` ({Benzenesulfonyl(4-F)}-[X2]KLLKKLL-NH2) has an MHC (Erythrocyte) of 256 µg/mL.

Work on `CC(C)C[C@H](NC(=O)[C@H](CC(C)C)NC(=O)[C@H](CCCCN)NC(=O)[C@H](CCCCN)NC(=O)[C@H](CC(C)C)NC(=O)[C@H](CC(C)C)NC(=O)[C@H](CCCCN)NC(=O)CN(C[C@@H](N)Cc1ccccc1)S(=O)(=O)c1ccc(F)cc1)C(N)=O` ({Benzenesulfonyl(4-F)}-[X3]KLLKKLL-NH2) yielded an MHC (Erythrocyte) of 256 µg/mL.

In the case of `COc1ccc(S(=O)(=O)N(CC(=O)N[C@@H](CCCCN)C(=O)N[C@@H](CC(C)C)C(=O)N[C@@H](CC(C)C)C(=O)N[C@@H](CCCCN)C(=O)N[C@@H](CCCCN)C(=O)N[C@@H](CC(C)C)C(=O)N[C@@H](CC(C)C)C(N)=O)C[C@@H](N)CC(C)C)cc1` ({Benzenesulfonyl(4-OMe)}-[X2]KLLKKLL-NH2), the MHC (Erythrocyte) is reported as 256 µg/mL.

`COc1ccc(S(=O)(=O)N(CC(=O)N[C@@H](CCCCN)C(=O)N[C@@H](CC(C)C)C(=O)N[C@@H](CC(C)C)C(=O)N[C@@H](CCCCN)C(=O)N[C@@H](CCCCN)C(=O)N[C@@H](CC(C)C)C(=O)N[C@@H](CC(C)C)C(N)=O)C[C@@H](N)Cc2ccccc2)cc1` ({Benzenesulfonyl(4-OMe)}-[X3]KLLKKLL-NH2) showed an MHC (Erythrocyte) of 256 µg/mL.

For `CC1(C)S[C@@H]2[C@H](NC(=O)[C@H](N)c3ccc(O)cc3)C(=O)N2[C@H]1C(=O)O` [AMOXICILLIN], the “fold change (FC)” value (Staphylococcus aureus [3]) was 4096 and the “fold change (FC)” value (Staphylococcus aureus [4]) was 4096.

In the case of `C[C@H]1[C@H](NC(=O)/C(=N\OC(C)(C)C(=O)O)c2csc(N)n2)C(=O)N1S(=O)(=O)O` [AZTREONAM], the “fold change (FC)” value (Pseudomonas aeruginosa [5]) is reported as 2 and the “fold change (FC)” value (Pseudomonas aeruginosa [6]) is reported as 32.

In the case of `CC(C)(O/N=C(\C(=O)N[C@@H]1C(=O)N2C(C(=O)[O-])=C(C[n+]3ccccc3)CS[C@H]12)c1csc(N)n1)C(=O)O` [CEFTAZIDIME], the “fold change (FC)” value (Pseudomonas aeruginosa [6]) is reported as 256.

In the case of `C[C@@H](O)[C@H]1C(=O)N2C(C(=O)O)=C(SCCNC=N)C[C@H]12` [IMIPENEM ANHYDROUS], the “fold change (FC)” value (Pseudomonas aeruginosa [5]) is reported as 1 and the “fold change (FC)” value (Pseudomonas aeruginosa [6]) is reported as 16.

H-FLKLLKKLL-NH2 showed an MHC (Erythrocyte) of 256 µg/mL and a half-life [2] of 76.8 min.
